The values below come from US20100016275A1, “NOVEL COMPOUND 395” (priority 2008, published 2010).

Data set [1] is described as follows: Measurement of solubility (S). The settings on record: thermodynamic from solid; saturated solution, shaken overnight at 20° C. The class given is physicochemical. The source says: Measurement of Solubility (S)
The solubility of a compound is an important property affecting the preparation of solutions of the compound for screening, as well as influencing absorption of solid doses of the compound in animal and human studies. The method described below for measuring the solubility involves the generation of a saturated solution of the compound, followed by assaying the solution using HPLC with UV quantification and MS identification.
Saturated solutions for determining the solubility were prepared by placing about 0.3-3.0 ml of solvent in glass screw-top sample tubes along with some of the compound. The tubes are then shaken overnight in the constant temperature room (20° C.). After shaking, undissolved material should be present in the solution, and more was added and shaking continued if this was not the case. The samples were then transferred to a centrifuge tube and centrifuged using a Heraeus Biofuge Fresco centrifuge at 13000 rpm for about 30 minutes. The supernatant was then removed, placed in a new centrifuge tube and centrifuged again for about 30 minutes at 13000 rpm. The undissolved material formed a pellet at the bottom of the tube and the liquid above the pellet was removed for assaying. The solution was then analysed using HPLC with UV quantification. If the response for the compound is very strong then the solution should be accurately diluted such that the response lies within a more suitable range of UV response. A standard was also prepared by accurately weighing a sample of the compound and dissolving it in a suitable volume of a solvent that dissolves it completely (typically, DMSO, ethanol or methanol). This sample was then analysed by HPLC/UV. Again the response of this standard should lie within a suitable range of UV response otherwise a more appropriate concentration should be prepared and analysed by HPLC/UV.
The solubility (S) was calculated from the observed peak areas in the HPLC/UV chromatograms along with corrections for any dilutions of the sample and differences in injection volumes. The following equation was used: […]

Data set [2] in a line: Bioavailability (F) in the rat. The settings on record: plasma, 3 mg/kg; male rat, oral vs iv AUC, dose normalised. The class given is in vivo. The source says: Bioavailability (F) in the Rat
This describes the methods used to obtain in vivo pharmacokinetic parameters in the male rat. It is applicable for use with any compound but may need modification based on such parameters as solubility, assay sensitivity, anticipated clearance and half-life, when the default formulation, dose level or sampling intervals may be inappropriate. The method described here represents a standard approach from which justified and documented modifications can be made. This method also allows for single compounds or mixtures (cassettes) to be administered.
A standard dose solution of 1 mg·mL^−1 was prepared. The recommended dose vehicle (if the compound was not sufficiently soluble in isotonic saline) was 50% PEG 400:50% sterile water. The required mass of compound was dissolved in the PEG400 before addition of the water. […]
The concentration of the analyte(s) were determined in plasma quantitative by mass spectrometry.
Pharmacokinetic data analysis and tabulation was achieved using WinNonlin and Excel. […] Bioavailability (F) was calculated from the ratio of the iv and oral AUC (the integral of the plasma concentration time curve) once dose normalised.

≈ marks a conversion by molar mass, not a printed value.

On to `Cc1ccc(CSc2nc(N[C@H](C)CO)cc(NS(=O)(=O)N3CCC3)n2)c(F)c1C` [Example 41], for which the solubility – broadly, the dissolved amount per volume that the medium holds – in data set [1] turned out to be 372 µg/mL (≈ 817 µM).

As to `Cc1cccc(CSc2nc(N[C@H](C)CO)cc(NS(C)(=O)=O)n2)c1F` [Example 39], the bioavailability – broadly, the share of a dose that reaches the circulation, judged against a reference dose that is usually intravenous – in data set [2] came to 44%. The same compound yielded a solubility in data set [1] of 342 µg/mL (≈ 854 µM).

`C[C@@H](Nc1cc(NS(=O)(=O)N2CCC2)nc(SCc2cccc(F)c2F)n1)[C@@H](O)CO` [Example 1, N-(2-[(2,3-difluorobenzyl)thio]-6-{[(1R,2R)-2,3-dihydroxy-1-methylpropyl]amino}pyrimidin-4-yl)azetidine-1-sulfonamide]: the bioavailability in data set [2] was 49%. The same compound registered a solubility in data set [1] of 317 µg/mL (≈ 667 µM).
